Reference: patent publication US20250262209A1, “TREATMENT OF GASTROINTESTINAL DISEASES” (Aclipse Two, Inc., priority 2022, published 2025)

System: TNF-α, IL-10, CCL2, and IL-1β gene expression in colon
Test: QT-PCR gene expression in colon of the DSS-induced IBD model
Type: in vivo, mice
Procedure: Animals were euthanized by CO2 at the end of study. Colon length and colon weight (cecum is not included) were recorded, and macroscopic changes were scored based on Table 2. The colon was cleaned using saline, and all feces were removed before weight measurement. The middle part of colon was collected in cassette and fixed in 10% neutral buffered formalin (NBF) for H&E and PAS staining. For left colon, mucosal from colon surface was removed and then snap frozen in liquid nitrogen and store at −80° C. for QT-PCR analysis of TNF-α, IL-10, CCL2, and IL-1β. QT-PCR primers were purchased from Sangon Biotech Co., Ltd.
Treatment of Tissue before RNA Extraction are as follows. • (a) Remove mucosal from colon surface. Cut colon tissue into small pieces on ice. • (b) Weight out the tissue no more than 30 mg and transfer the tissue into a lysing matrix D tube. Totally 700 µL Trizol was added in the tissue and lysing matrix D immediately. • (c) Put the lysing matrix D tubes which contain tissue, Lysing matrix, and 700 μL Trizol into the FastPrep™-24 Sample Preparation System. • (d) Set at speed 6 and grind for 2 min • (e) 140 μL chloroform was added into the tubes, shake the tubes vigorously by vortex for 15 seconds. Incubate at room temperature for 2 min. • (f) 12000 rpm centrifuge for 10 min at 4° C., • (g) Pipet the supernatant to 96 well 2.2 mL deep well plate
RNA Sample Preparation procedure is as follows. • (a) 600 μL Binding Buffer was added into column 1 and 7 • (b) 600 μL DNase Stop Buffer was added into column 2 I 8 • (c) 600 μL Wash Buffer was added into column 3, 4 and 9, 10 • (d) 100 μL Elution Buffer was added into column 5Id 11 • (e) 190 μL DEPC water and 10 μL MagaBio® Reagent was added into column 6 and 12 • (f) Transfer 300 μL of the colorless, upper phase containing the RNA to column 1 and 7 • (g) Put the test plate in nucleic acid purifier • (h) Set the instrument as below in Table 3.
The elution was transferred into a clean nuclease-free centrifuge tube and the RNA sample was store at −80° C.
To use the Takara Prime Script™ Reverse Transcription System, Mix and briefly centrifuge each component before use. Combine the following component volume as in Table 4.
• (a) Store on ice until reverse transcription mix is added. Centrifuge 10 seconds in a micro-centrifuge. Heat in a 42° C. heat block for 2 minutes, 4° C. immediately chill in ice water for at least 5 minutes. • (b) Prepare the reverse transcription reaction mix, 10 μL for each cDNA reaction. Combine on ice, in the order listed. Component volume of step b) (Table 5).
• (c) Combine 20 μL of reverse transcription mix, Centrifuge 10 seconds in a microcentrifuge. • (d) Anneal in a heat block at 37° C. for 15 min, 85° C. for 5 sec, 4° C. save on S100™ Thermal Cycler. • (e) Aliquot the cDNA sample and store at −20° C.
• (a) Make qPCR reaction mixture in one tube based on assay number and replicas. • (b) Prepare primers and master mix mixture according to manufacturer's instructions. And aliquot 9 μL of mixture into each well of the 384 qPCR plate. • (c) Transfer 1 μL of cDNA into each well of a 384 qPCR plate which already contain 9 μL of mixture. Briefly centrifuge the plate. • (d) Seal the plate • (e) Mix thoroughly, spin briefly • (f) Run the PCR Reaction • (g) Place the reaction plate in the instrument. • (h) Set the Applied Biosystems ViiA™ 7 cycling conditions as in Table 6.
Data were expressed as mean±SD. The 2-ΔΔCT method was used to analyze the mRNA expression level. The results were normalized for RNA input using glyceraldehydes-3-phosphate dehydrogenase (GAPDH or other internal controls). Statistical analysis was performed using, one-way ANOVA followed if significant by post-hoc Dunnett test. […] The difference was considered significant when p<0.05

[1] = 0.36 mg/kg PO QD 10 days, vs model
[2] = 1.20 mg/kg PO QD 10 days, vs model
[3] = 3.61 mg/kg PO QD 10 days, vs model

COc1ccc(Oc2cc(N(C)CCOc3ccc(CC4SC(=O)NC4=O)cc3)ncn2)cc1 (centres unmarked) [lobeglitazone, 5-(4-(2-((6-(4-Methoxyphenoxy)pyrimidin-4-yl)(methyl)amino)ethoxy)benzyl)thiazolidine-2,4-dione]
CCL2 gene expression levels in colon [1]: led to decreases | IL-1B gene expression levels in colon [1]: significantly decreased | TNF-α gene expression levels in colon [1]: significantly decreased | CCL2 gene expression levels in colon [2]: led to decreases | IL-1B gene expression levels in colon [2]: significantly decreased | TNF-α gene expression levels in colon [2]: significantly decreased | CCL2 gene expression levels in colon [3]: significantly decreased | IL-1β gene expression levels in colon [3]: did not change | TNF-α gene expression levels in colon [3]: didn't show obvious changes | IL-10 gene expression levels in colon (lobeglitazone groups (0.36, 1.20, 3.61 mg/kg PO QD 10 days)): did not change significantly | GI inflammation, as evidenced by the gene expression data (mouse DSS model, 0.36 and 1.20, and 3.61 mg/kg): significantly decreased
